Here are results for two molecules from article PMC12257413, “Discovery of a Novel sp^3‑Rich M1 Positive Allosteric Modulators (PAMs) Chemotype via Scaffold Hopping” (ACS Medicinal Chemistry Letters, 2025).

The assay concerns the target T1, rat muscarinic receptor subtype 1 (M1) (Rattus norvegicus, UniProt P08482).
T1 construct: expressed in transfected cells
T1 sequence (P08482 1-460): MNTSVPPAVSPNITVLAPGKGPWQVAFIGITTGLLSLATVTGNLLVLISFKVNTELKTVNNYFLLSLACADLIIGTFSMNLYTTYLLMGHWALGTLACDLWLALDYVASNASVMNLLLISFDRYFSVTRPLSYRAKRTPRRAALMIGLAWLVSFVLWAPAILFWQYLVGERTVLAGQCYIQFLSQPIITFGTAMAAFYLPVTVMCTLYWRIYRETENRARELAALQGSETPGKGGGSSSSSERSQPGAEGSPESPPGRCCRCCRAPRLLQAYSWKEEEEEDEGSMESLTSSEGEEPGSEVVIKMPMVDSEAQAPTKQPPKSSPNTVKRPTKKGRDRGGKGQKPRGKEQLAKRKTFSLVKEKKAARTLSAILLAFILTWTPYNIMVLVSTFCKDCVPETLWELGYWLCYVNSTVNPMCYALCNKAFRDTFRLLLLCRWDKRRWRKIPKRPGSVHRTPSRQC
In words: Calcium mobilization assay in rM1-CHO cells, PAM activity with EC20 acetylcholine. The class given is cell-based. Conditions: for EC50: read-out: rM1 pEC50 ± SEM (converted). As for the experimental part: page 2: Procedures for Biological Experiments Calcium mobilization assays: To measure the functional activity of positive allosteric modulator (PAM) compounds in a cellular assay, human or rat muscarinic receptor subtype 1 (M1) was stably expressed in the Chinese hamster ovary (CHO) cells to evoke an increase in intracellular calcium to an EC20 concentration of acetylcholine (ACh) agonist. The stable M1-CHO cells were cultured in F12 medium containing 10% fetal bovine serum, 20 mM HEPES, 100 units/mL antibiotics/antimycotic, 0.5 mg/ml G418. All reagents used were from Life Technologies (Carlsbad, CA) unless otherwise noted. Briefly, the day before the assay, stable M1-CHO cells (15,000 cells/20 μL/well) were plated in black-walled, clear-bottomed, 384 well plates (Greiner Bio-One, Monroe, NC) in the culture medium without G418, and then incubated overnight at 37 °C in the presence of 5% CO2. The next day, calcium assay buffer (Hank’s balanced salt solution (HBSS), 20 mM HEPES, 2.5 mM Probenecid, 4.16 mM sodium bicarbonate (Sigma-Aldrich, St. Louis, MO) was prepared to dilute […] calcium indicator dye. […] curves in DMSO using the Bravo Liquid Handler (Agilent, Santa Clara, CA), transferred to a 384 well daughter plates using an Echo acoustic liquid handler (Beckman Coulter, Indianapolis, Indiana), and diluted in assay Buffer to a 2X final concentration. The agonist plates were prepared using acetylcholine (ACh, Sigma-Aldrich, St. Louis, MO) concentrations for the EC20 and ECMAX responses by diluting in assay buffer to a 5X final concentration. The 2X dye solution (2.3 µM) was prepared by mixing a 2.3 mM Fluo-4-AM stock in DMSO with 10% (w/v) pluronic acid F- 127 in a 1:1 ratio in assay buffer. Using a microplate washer (BioTek, Winooski, VT), cells were washed with assay buffer for 3 times to remove medium. After the final wash, 20 μL of assay buffer remained in the cell plates. Immediately, 20 μL of the 2X dye solution (final 1.15 µM) was added to each well of the cell plate using a Multidrop Combi dispenser (Thermo Fisher, Waltham, MA). After cells were incubated with the dye solutions for 45 min at 37 °C in the presence of 5% CO2, the dye solutions were removed and replaced with assay buffer using a microplate washer, leaving 20 μL of assay buffer in the cell plate. The compound, agonist, and cell plates were placed inside the Functional Drug Screening System uCell (FDSS uCell, Hamamatsu, Japan) to measure the calcium flux. The triple add protocol was used to measure Ca kinetics; Compound, ACh for EC20, and ACh for ECMAX adds in an order. Briefly, after establishment of a fluorescence baseline S2 page 3: for 2 seconds (excitation, 480 nm; emission, 530 nm), first add occurred by adding 20 µL of test compound to the cells, and the response was measured for 140 seconds. This is followed by second add; 10 µL (5X) of an EC20 concentration of ACh agonist was added to the cells, and the response of the cells was measured for 125 seconds. Immediately, the third add occurred by adding 12 ul assay buffer or 5X of an EC max concentration of ACh and the response of the cells was measured for 90 seconds. Assay buffer was added to the wells that incubated with compounds followed by EC20 concentration of ACh. Agonists containing ECmax concentration of ACh were added to the wells that incubated with DMSO and assay buffer from the 1st and 2nd adds to measure maximum Ca responses (ECmax). Calcium fluorescence was recorded as fold over basal fluorescence and raw data were normalized to the maximal response to ACh agonist. […]

Regarding `Cn1cc(-c2ccc(Cc3cc(C(=O)N[C@H]4CCOC[C@@H]4O)nn3C3CCCC3)cc2)cn1` [17g], the “rM1 %ACh Max ± SEM” value turned out to be 83 ± 4.1 %ACh Max and the EC50 is 347 nM.
For `Cn1cc(-c2ccc(Cc3cc(C(=O)N[C@H]4CCCC[C@@H]4O)nn3C3CCCC3)cc2)cn1` [17k] the same measures were 83 ± 2.8 %ACh Max and 490 nM.
